pIC50: −log10 of the molar value.
Assays:
[1] = biological target: T1, Histone-lysine N-methyltransferase SETD7 (Homo sapiens) (UniProt Q8WTS6); assay: Inhibition of GST-fused human recombinant SET7 at 100 uM after 90 mins by SDS-PAGE based scintillation counting
T1 sequence (whole entry): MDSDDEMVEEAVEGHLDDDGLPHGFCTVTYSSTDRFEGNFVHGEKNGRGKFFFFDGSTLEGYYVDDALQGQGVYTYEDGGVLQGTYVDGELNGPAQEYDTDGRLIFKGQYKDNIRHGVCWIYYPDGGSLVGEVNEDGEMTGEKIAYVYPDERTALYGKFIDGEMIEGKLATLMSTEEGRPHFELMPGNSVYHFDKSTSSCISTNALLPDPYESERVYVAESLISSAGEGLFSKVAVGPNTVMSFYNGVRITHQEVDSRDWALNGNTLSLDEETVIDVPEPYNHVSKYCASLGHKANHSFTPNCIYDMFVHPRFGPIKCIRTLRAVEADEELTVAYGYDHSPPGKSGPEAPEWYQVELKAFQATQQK

[2] = biological target: T2, Protein arginine N-methyltransferase 1 (Homo sapiens, UniProt Q99873); assay: Inhibition of GST-fused human recombinant PRMT1 at 100 uM after 90 mins by SDS-PAGE based scintillation counting
Target sequence in this assay (Q99873 whole entry, looked up, the tested form may be a part): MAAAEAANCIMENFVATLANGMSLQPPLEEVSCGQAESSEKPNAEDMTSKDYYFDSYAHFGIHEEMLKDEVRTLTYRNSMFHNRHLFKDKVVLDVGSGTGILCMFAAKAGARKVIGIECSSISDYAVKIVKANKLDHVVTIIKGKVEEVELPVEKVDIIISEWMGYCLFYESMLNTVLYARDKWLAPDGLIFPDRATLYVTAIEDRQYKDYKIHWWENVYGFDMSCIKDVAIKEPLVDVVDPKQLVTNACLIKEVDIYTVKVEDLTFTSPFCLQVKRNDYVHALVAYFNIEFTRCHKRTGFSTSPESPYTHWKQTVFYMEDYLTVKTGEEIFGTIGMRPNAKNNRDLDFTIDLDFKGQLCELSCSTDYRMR

[3] = biological target: T2, Protein arginine N-methyltransferase 1; assay: Inhibition of GST-fused human recombinant PRMT1 after 90 mins by SDS-PAGE based scintillation counting
Target sequence in this assay (Q99873 whole entry, the tested form may be a part): as the sequence (Q99873 whole entry, looked up, the tested form may be a part) above

[4] = biological target: T3, Histone-lysine N-methyltransferase SETD7 (Homo sapiens, UniProt Q8WTS6); assay: Inhibition of GST-fused human recombinant SET7 after 90 mins by SDS-PAGE based scintillation counting
T3 sequence (Q8WTS6 whole entry): T1 sequence (whole entry)

inhibition [1] [%] | inhibition [2] [%] | pIC50 [3] | SMILES | pIC50 [4]
63 | 77 |  | C#CCN(CC[C@H](NC(=O)OC(C)(C)C)C(=O)OC(C)(C)C)C[C@H]1O[C@@H](n2cnc3c(N)ncnc32)[C@@H]2OC(C)(C)O[C@@H]21 | 
75 | 50 |  | C#CCN(CC[C@H](N)C(=O)O)C[C@H]1O[C@@H](n2cnc3c(N)ncnc32)[C@H](O)[C@@H]1O | 

The remaining lines, values behind:

SMILES | inhibition [1] [%] | inhibition [2] [%] | pIC50 [3] | pIC50 [4]
N=C(N)NCCCCCN(CC[C@H](N)C(=O)O)C[C@H]1O[C@@H](n2cnc3c(N)ncnc32)[C@H](O)[C@@H]1O | 55 |  |  | 
N=C(N)NCCCCN(CC[C@H](N)C(=O)O)C[C@H]1O[C@@H](n2cnc3c(N)ncnc32)[C@H](O)[C@@H]1O | 49 |  | 5.54 | 
N=C(N)NCCCN(CC[C@H](N)C(=O)O)C[C@H]1O[C@@H](n2cnc3c(N)ncnc32)[C@H](O)[C@@H]1O | 56.5 |  | 5.21 | 
Nc1ncnc2c1ncn2[C@@H]1O[C@H](C[C@@H](N)CC[C@H](N)C(=O)O)[C@@H](O)[C@H]1O [SINEFUNGIN] |  |  |  | 5.60
N=C(N)NCCn1cc(CN(CC[C@H](N)C(=O)O)C[C@H]2O[C@@H](n3cnc4c(N)ncnc43)[C@H](O)[C@@H]2O)nn1 | > 50 | > 50 |  | 
